Non-standard residues stand in square brackets, D forms with d. Residues, ends and D or L forms follow the SMILES beside them. Mpa = O=C(O)CCS

Experimental findings from patent US4216209A, “Tripeptide angiotensin converting enzyme inhibitors” (American Home Products Corporation, priority 1979, dated 1980) are described below.

This assay relates to spontaneously hypertensive rat (SHR). Kind of assay: Antihypertensive test in conscious spontaneously hypertensive rats: arterial BP and pressor/depressor responses to i.v. angiotensin I and bradykinin after oral dosing. The class given is in vivo. The settings on record: male SHR, 50 mg/kg of body weight. The source says: Male SHR of the Okamoto-Aoki strain (purchased from Charles River Lakeview, Boston, Mass.) ranging in weight between 280 and 370 g are anesthetized with diethyl ether. Their left femoral arteries and veins are cannulated with polyethylene tubing of the appropriate size. Each animal is then placed in a rubber mesh jacket which is secured with four towel clamps. The animal is suspended via the towel clamps from a bar and allowed to recover from the anesthesia. The arterial cannula is connected to a Statham pressure transducer (Model P23, Gould Statham Instruments, Hato Rey, Porto Rico) which, in turn, is attached to a polygraph for recording arterial blood pressure (BP) and pulse rate.
When the BP has stabilized, the intravenous injection of the agonists, angiotensin I (AI) or bradykinin (B) is initiated. Each of the agonists is prepared daily from refrigerated stock solution (using distilled water as the diluent), and injected in a volume of 1 ml/kg (using physiological saline as the diluent) at the following doses: AI, 0.125 μg/kg and B, 5 μg/kg.
Enough time is allowed for the BP to return to preinjection levels before the next agonist is given. A dose of the compound to be tested is given orally seven to ten minutes after the injection of the last agonist. Four rats are used and the test compound is given by gastric gavage in a volume of 5 ml/kg of body weight. Heart rate and BP are measured at 5, 10, 15, 30, 45 and 60 minutes and at hourly intervals thereafter for a period of at least four hours after drug administration. At one and two hours after the test compound has been given, AI and B are injected again at the same concentration and in the same order as during the control period.

As to `CC(C)C[C@H](NC(=O)[C@H](Cc1c[nH]cn1)NC(=O)[C@@H]1CCCN1C(=O)CCS)C(=O)O` [N-[N-[1-(3-Mercapto-1-oxopropyl)prolyl]histidyl]leucine] ([Mpa]PHL-OH), for the setting “oral (gastric gavage), measured two hours after administration”, the “decrease in mean arterial BP” value was found to be 8%. Besides, under “oral, angiotensin I 0.125 μg/kg i.v.”, the “reduction in angiotensin I response on BP” value came out at 61%. Moreover, the “potentiation of bradykinin response” value (oral, bradykinin 5 μg/kg i.v.) is recorded as 564%.
